Our source for the melting point values is patent US10385037B2, “4′-O-substituted isoindoline derivatives and compositions comprising and methods of using the same” (Celgene Corporation, priority 2007, dated 2019).

In turn, `CC(Oc1cccc2c1C(=O)N(C1CCC(=O)NC1=O)C2=O)c1ccc2ccccc2c1` (stereo not drawn) [Example 23, 2-(2,6-Dioxo-piperidin-3-yl)-4-(1-naphthalen-2-yl-ethoxy)-isoindole-1,3-dione] registered a melting point of 174 to 176 °C. On to `O=C1CCC(N2C(=O)c3cccc(OCc4ccco4)c3C2=O)C(=O)N1` (stereo not drawn) [Example 19, 2-(2,6-Dioxo-piperidin-3-yl)-4-(furan-2-ylmethoxy)-isoindole-1,3-dione], for which the melting point is 184 to 186 °C. The molecule `O=C1CCC(N2C(=O)c3cccc(OCc4cnc5ccccc5c4)c3C2=O)C(=O)N1` (stereo not drawn) [Example 15, 2-(2,6-Dioxo-piperidin-3-yl)-4-(quinolin-3-ylmethoxy)-isoindole-1,3-dione] came in with a melting point of 263 to 265 °C. With `O=C1CCC(N2C(=O)c3cccc(OCc4ccc5ccccc5c4)c3C2=O)C(=O)N1` (stereo not drawn) [Example 14, 2-(2,6-Dioxo-piperidin-3-yl)-(naphthalene-2-ylmethoxy)-isoindole-1,3-dione], the melting point was over 260 °C. For the molecule `CS(=O)(=O)c1ccc(COc2cccc3c2C(=O)N(C2CCC(=O)NC2=O)C3=O)cc1` (stereo not drawn) [Example 11, 2-(2,6-Dioxo-piperidin-3-yl)-4-(4-methanesulfonyl-benzyloxy)-isoindole-1,3-dione], the melting point fell in the range of 293 to 295 °C. As to `Cc1cccc(COc2cccc3c2C(=O)N(C2CCC(=O)NC2=O)C3=O)c1` (stereo not drawn) [Example 10, 2-(2,6-Dioxo-piperidin-3-yl)-4-(3-methyl-benzyloxy)-isoindole-1,3-dione], the melting point was 195 to 197 °C.

With `O=C1CCC(N2C(=O)c3cccc(OCc4ccc5ccccc5n4)c3C2=O)C(=O)N1` (stereo not drawn) [Example 16, 2-(2,6-Dioxo-piperidin-3-yl)-(quinolin-2-ylmethoxy)-isoindole-1,3-dione], the melting point is 254 to 256 °C. Molecule `O=C1CCC(N2C(=O)c3cccc(OCc4cccc(Br)c4)c3C2=O)C(=O)N1` (stereo not drawn) [Example 9, 4-(3-Bromo-benzyloxy)-2-(2,6-dioxo-piperidin-3-yl)-isoindole-1,3-dione] displayed a melting point of 246 to 248 °C.

Molecule `O=C1CCC(N2C(=O)c3cccc(OCc4ccc(Cl)c(Cl)c4)c3C2=O)C(=O)N1` (stereo not drawn) [Example 6, 4-(3,4-Dichloro-benzyloxy)-2-(2,6-dioxo-piperidin-3-yl)-isoindole-1,3-dione] registered a melting point of 245 to 247 °C.

Take `O=C1CCC(N2C(=O)c3cccc(OCc4ccc5c(c4)OCO5)c3C2=O)C(=O)N1` (stereo not drawn) [Example 13, 4-(Benzo[1,3]dioxol-5-ylmethoxy)-2-(2,6-dioxo-piperidin-3-yl)-isoindole-1,3-dione]: the melting point is 229 to 231 °C.

Molecule `O=C1CCC(N2C(=O)c3cccc(OCc4cc5ccccc5s4)c3C2=O)C(=O)N1` (stereo not drawn) [Example 18, 4-(Benzo[b]thiophen-2-ylmethoxy)-2-(2,6-dioxo-piperidin-3-yl)-isoindole-1,3-dione] returned a melting point of 247 to 249 °C. In turn, `O=C1CCC(N2C(=O)c3cccc(OCc4sc5ccccc5c4Cl)c3C2=O)C(=O)N1` (stereo not drawn) [Example 20, 4-(3-Chloro-benzo[b]thiophen-2-ylmethoxy)-2-(2,6-dioxo-piperidin-3-yl)-isoindole-1,3-dione] displayed a melting point of 240 to 242 °C. The molecule `COc1ccc(COc2cccc3c2C(=O)N(C2CCC(=O)NC2=O)C3=O)cc1` (stereo not drawn) [Example 24, 2-(2,6-Dioxo-piperidin-3-yl)-4-(4-methoxy-benzyloxy)-isoindole-1,3-dione] returned a melting point of 178 to 180 °C. Consider `O=C1CCC(N2C(=O)c3cccc(OCc4cc(Cl)cc(Cl)c4)c3C2=O)C(=O)N1` (stereo not drawn) [Example 7, 4-(3,5-Dichloro-benzyloxy)-2-(2,6-dioxo-piperidin-3-yl)-isoindole-1,3-dione], for which the melting point lay in the range of 278 to 280 °C. `O=C1CCC(N2C(=O)c3cccc(OCc4cccc(Cl)c4)c3C2=O)C(=O)N1` (stereo not drawn) [Example 4, 4-(3-Chloro-benzyloxy)-2-(2,6-dioxo-piperidin-3-yl)-isoindole-1,3-dione] gave a melting point of 249 to 251 °C.

Molecule `COc1cccc(COc2cccc3c2C(=O)N(C2CCC(=O)NC2=O)C3=O)c1` (stereo not drawn) [Example 12, 2-(2,6-Dioxo-piperidin-3-yl)-4-(3-methoxy-benzyloxy)-isoindole-1,3-dione] yielded a melting point of 197 to 201 °C. The result for `O=C1CCC(N2C(=O)c3cccc(OCc4ccc(Cl)cc4)c3C2=O)C(=O)N1` (stereo not drawn) [Example 5, 4-(4-Chloro-benzyloxy)-2-(2,6-dioxo-piperidin-3-yl)-isoindole-1,3-dione] reads 239 to 241 °C. In the case of `O=C1CCC(N2C(=O)c3cccc(OCc4ccc(Cl)s4)c3C2=O)C(=O)N1` (stereo not drawn) [Example 22], the melting point is 217 to 219 °C.

Molecule `O=C1CCC(N2C(=O)c3cccc(OCc4cc5ccccc5o4)c3C2=O)C(=O)N1` (stereo not drawn) [Example 17, 4-(Benzofuran-2-ylmethoxy)-2-(2,6-dioxo-piperidin-3-yl)-isoindole-1,3-dione] yielded a melting point of 234 to 236 °C.

The molecule `O=C1CCC(N2C(=O)c3cccc(OCc4cc5c(F)cccc5s4)c3C2=O)C(=O)N1` (stereo not drawn) [Example 21, 2-(2,6-Dioxo-piperidin-3-yl)-4-(4-fluoro-benzo[b]thiophen-2-ylmethoxy)-isoindole-1,3-dione] gave a melting point of 264 to 266 °C. In turn, `O=C1CCC(N2C(=O)c3cccc(OCc4cccc(F)c4)c3C2=O)C(=O)N1` (stereo not drawn) [Example 8, 4-(3-Fluoro-benzyloxy)-2-(2,6-dioxo-piperidin-3-yl)-isoindole-1,3-dione] yielded a melting point of 241 to 243 °C.
